Assay results reported in PubChem BioAssay AID1963875 (Molecular Pharmacology Branch, DTP, NCI, 2024).

Test system: KRAS-mutant PDC complex spheroid viability
Experiment: Anticancer human tumor 186277-243-T-J2-PDC patient-derived colon adenocarcinoma cell line growth inhibition [KRAS2]
Conditions: for IC50: curve of first compound; for viability, T/C: stronger effect = lower value
Text: Multicellular complex tumor spheroid response to RAS pathway inhibitors in combination with a targeted agents in patient-derived cell lines with oncogenic KRAS variants from multiple cancer types
A high-throughput screen of multi-cell type tumor spheroids was designed to identify active combinations of targeted small molecules and KRAS pathway inhibitors. Complex spheroids include a stromal component modeled by human endothelial cells (HUVEC) and fibroblasts modeled by human mesenchymal stem cells (MSCs). The concentration ranges selected for each drug and investigational agent were based upon clinically achievable concentrations if the clinical Cmax of the agent was known.
Compounds. The drugs and investigational agents: BI-3406 (NSC825286), BAY-293 (NSC824723), batoprotafib (TNO155; NSC825523), sotorasib (AMG 510; NSC818433), MRTX1257 (NSC819558), elimusertib (BAY 1895344; NSC800525), molibresib (GSK525762; NSC774829), temuterkib (LY3214996; NSC803410), venetoclax (NSC766270), alisertib (NSC759677), olaparib (NSC753686), talazoparib (NSC767125), erdafitinib (NSC781556), ipatasertib (NSC767898), cabozantinib (NSC761068), nintedanib (NSC756659), abemaciclib (NSC768073), docetaxel (NSC628503), trametinib (NSC758246), and sapanisertib (NSC764658) were obtained from the National Cancer Institute (NCI) Developmental Therapeutics Program Chemical Repository. The FDA-approved anticancer drug set is available from the Developmental Therapeutics Program. […] The stock solutions were prepared in dimethyl sulfoxide (DMSO, Sigma-Aldrich, St. Louis, MO, cat. D2650) at 800-fold the tested concentration and stored at -70 degrees C prior to their use. All drugs and investigational agents were tested over a range starting from a high concentration at or near the clinical Cmax and decreasing in half-log increments. If the clinical Cmax for an agent had not been determined, the highest concentration tested was 10 microM.
Cell Culture. All cells were maintained in an incubator at 37 degrees C and 5% CO2 with 95% humidity. The PDC lines were cultured according to standard operating procedures established by the NCI PDMR (https://pdmr.cancer.gov/sops/default.htm). Briefly, all PDCs were thawed and cultured in Matrigel-coated flasks prepared with a working solution of 1X Ham's F-12 nutrient mix, without supplementation (Invitrogen, Waltham, MA, cat. 11765054), 100 U/mL penicillin-streptomycin (Invitrogen, cat. 15140122), and 2.5% Matrigel (Corning Inc., Corning, NY, cat. 354248) for the first three passages. All PDCs were cultured in complete DMEM/F-12 media containing advanced DMEM/F-12 (Invitrogen, cat. 12634028), 4.9% defined fetal bovine serum, heat inactivated (HyClone Laboratories Inc., Logan, UT, cat. SH30070.03HI), 389 ng/mL hydrocortisone (Sigma-Aldrich, cat. H4001), 9.7 ng/mL human EGF recombinant protein (Invitrogen, cat. PHG0313), 23.4 microg/mL adenine (Sigma-Aldrich, cat. A2786), 97.3 U/mL penicillin-streptomycin (Invitrogen, cat. 15140122), 1.9 mM L-glutamine (Invitrogen, cat. 25030081), and 9.7 microM Y-27632 dihydrochloride (Tocris Bioscience, Bristol, United Kingdom, cat. 1254). The PDCs were cultured in complete DMEM/F12 media without 9.7 microM Y-27632 dihydrochloride for at least two passages prior to the screen. The established cell line HOP-62 was cultured in RPMI 1640 medium, HEPES (Invitrogen, cat. 22400105) with 10% defined fetal bovine serum (HyClone Laboratories Inc., cat. SH30070.03) and 2 mM L-glutamine (Invitrogen, cat. 25030081). The pooled donor HUVEC were cultured in endothelial cell growth medium 2 (PromoCell, Heidelberg, Germany, cat. C-22011) and the hMSC were cultured in mesenchymal stem cell growth medium 2 (PromoCell, cat. C-28009). For all experiments, HUVEC and hMSC were used at passages </=5, while the malignant cell lines were used at passages </=15. […]

[1] = second compound 0.1 µM, first compound 0.0316 µM
[2] = second compound 0.1 µM, first compound 0.1 µM
[3] = second compound 0.1 µM, first compound 0.316 µM
[4] = second compound 0.1 µM, first compound 1 µM
[5] = second compound 0.1 µM, first compound 3.16 µM
[6] = second compound 0.316 µM, first compound 0.0316 µM
[7] = second compound 0.316 µM, first compound 0.1 µM
[8] = second compound 0.316 µM, first compound 0.316 µM
[9] = second compound 0.316 µM, first compound 1 µM
[10] = second compound 0.316 µM, first compound 3.16 µM
[11] = second compound 1 µM, first compound 0.0316 µM
[12] = second compound 1 µM, first compound 0.1 µM
[13] = second compound 1 µM, first compound 0.316 µM
[14] = second compound 1 µM, first compound 1 µM
[15] = second compound 1 µM, first compound 3.16 µM
[16] = second compound 3.16 µM, first compound 0.0316 µM
[17] = second compound 3.16 µM, first compound 0.1 µM
[18] = second compound 3.16 µM, first compound 0.316 µM
[19] = second compound 3.16 µM, first compound 1 µM
[20] = second compound 3.16 µM, first compound 3.16 µM
[21] = second compound 10 µM, first compound 0.0316 µM
[22] = second compound 10 µM, first compound 0.1 µM
[23] = second compound 10 µM, first compound 0.316 µM
[24] = second compound 10 µM, first compound 1 µM
[25] = second compound 10 µM, first compound 3.16 µM
[26] = second compound 0.1 µM, first compound 10 µM
[27] = second compound 0.316 µM, first compound 10 µM
[28] = second compound 1 µM, first compound 10 µM
[29] = second compound 3.16 µM, first compound 10 µM
[30] = second compound 10 µM, first compound 10 µM
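Throughout, for viability, T/C: viability read after seven days of compound exposure; 100% = DMSO vehicle-treated spheroids so lower means less viable.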

Structure (SMILES) | IC50 (second compound 0.1 µM) [nM] | IC50 (second compound 0.316 µM) [nM] | IC50 (second compound 1 µM) [nM] | IC50 (second compound 3.16 µM) [nM] | IC50 (second compound 10 µM) [nM] | viability, T/C [1] [%] | viability, T/C [2] [%] | viability, T/C [3] [%] | viability, T/C [4] [%] | viability, T/C [5] [%] | viability, T/C [6] [%] | viability, T/C [7] [%] | viability, T/C [8] [%] | viability, T/C [9] [%] | viability, T/C [10] [%] | viability, T/C [11] [%] | viability, T/C [12] [%] | viability, T/C [13] [%] | viability, T/C [14] [%] | viability, T/C [15] [%] | other results
CC1COCCN1c1cc(-c2ccnn2C)c2ccnc(-c3ccn[nH]3)c2n1 (centres undefined) + C=CC(=O)N1CCN(c2nc(=O)n(-c3c(C)ccnc3C(C)C)c3nc(-c4c(O)cccc4F)c(F)cc23)C(C)C1 | 22 | 22.6 | 17.9 | 17 | < 10 | 32.6 | 5.89 | 4.33 | 3.67 | 4.31 | 31.5 | 6.35 | 4.65 | 3.68 | 4.54 | 24.2 | 7.17 | 5.13 | 4.4 | 5.82 | viability, T/C (second compound 0.1 µM, first compound 0.01 µM): 87.5%; viability, T/C (second compound 0.316 µM, first compound 0.01 µM): 94.6%; viability, T/C (second compound 3.16 µM, first compound 0.01 µM): 79.5%; viability, T/C [16]: 15.3%; viability, T/C [17]: 7.75%; viability, T/C [18]: 5.93%; viability, T/C [19]: 6.25%; viability, T/C [20]: 8.7%; viability, T/C (second compound 10 µM, first compound 0.01 µM): 19.3%; viability, T/C [21]: 11.3%; viability, T/C [22]: 9.23%; viability, T/C [23]: 8.93%; viability, T/C [24]: 11.2%; viability, T/C [25]: 14.7%
CC1OCC2(CCN(c3cnc(Sc4ccnc(N)c4Cl)c(N)n3)CC2)C1N (centres undefined) + C=CC(=O)N1CCN(c2nc(=O)n(-c3c(C)ccnc3C(C)C)c3nc(-c4c(O)cccc4F)c(F)cc23)C(C)C1 | > 10000 | > 10000 | > 10000 | > 10000 | 449 | 99.3 | 97 | 99.2 | 105 | 104 | 99.9 | 93.2 | 96.1 | 99.4 | 101 | 101 | 99 | 93.4 | 90.1 | 94.4 | viability, T/C [26]: 107%; viability, T/C [27]: 102%; viability, T/C [28]: 80.2%; viability, T/C [16]: 80.4%; viability, T/C [17]: 87.2%; viability, T/C [18]: 76.6%; viability, T/C [19]: 82.9%; viability, T/C [20]: 80.5%; viability, T/C [29]: 62.8%; viability, T/C [21]: 53.9%; viability, T/C [22]: 52.8%; viability, T/C [23]: 56.4%; viability, T/C [24]: 40.7%; viability, T/C [25]: 22.7%; viability, T/C [30]: 19.5%
CCNC(=O)CC1N=C(c2ccc(Cl)cc2)c2cc(OC)ccc2-n2c(C)nnc21 (centres undefined) + C=CC(=O)N1CCN(c2nc(=O)n(-c3c(C)ccnc3C(C)C)c3nc(-c4c(O)cccc4F)c(F)cc23)C(C)C1 | > 10000 | > 10000 | 9860 | 2730 | 306 | 108 | 117 | 121 | 162 | 132 | 103 | 101 | 125 | 155 | 121 | 95.2 | 103 | 126 | 138 | 102 | viability, T/C [26]: 101%; viability, T/C [27]: 87.9%; viability, T/C [28]: 49.4%; viability, T/C [16]: 88.9%; viability, T/C [17]: 87.1%; viability, T/C [18]: 107%; viability, T/C [19]: 101%; viability, T/C [20]: 43.3%; viability, T/C [29]: 14.7%; viability, T/C [21]: 75.8%; viability, T/C [22]: 87.1%; viability, T/C [23]: 46.7%; viability, T/C [24]: 18.4%; viability, T/C [25]: 9.07%; viability, T/C [30]: 4.83%
Cn1nccc1Nc1nccc(-c2cc3c(s2)C(C)(C)N(CCN2CCOCC2)C3=O)n1 + C=CC(=O)N1CCN(c2nc(=O)n(-c3c(C)ccnc3C(C)C)c3nc(-c4c(O)cccc4F)c(F)cc23)C(C)C1 | 415 | 507 | 497 | 289 | 102 | 101 | 89.7 | 62.6 | 10.8 | 5.84 | 92.9 | 91.9 | 73.7 | 15.9 | 7.21 | 97.5 | 85.5 | 74.2 | 12.6 | 8.16 | viability, T/C [26]: 9.07%; viability, T/C [27]: 9.45%; viability, T/C [28]: 10.1%; viability, T/C [16]: 89.1%; viability, T/C [17]: 83.5%; viability, T/C [18]: 47.4%; viability, T/C [19]: 9.35%; viability, T/C [20]: 11.3%; viability, T/C [29]: 9.1%; viability, T/C [21]: 70.3%; viability, T/C [22]: 50.8%; viability, T/C [23]: 12.8%; viability, T/C [24]: 5.63%; viability, T/C [25]: 2.98%; viability, T/C [30]: 2.56%
